Values of other authors, collected in patent US20220000833A1, “COMPOSITIONS AND METHODS FOR TREATING O[…] APNEA” (THERAPIX BIOSCIENCES LTD., priority 2018, published 2022).

How the values were obtained:
[1] = system: humans
[2] = system: patients; settings: more than 40 years of clinical research, around 6000 patients, 300-1200 mg a day up to two months

| Compound | hypothesized lethal dose in humans ([1]; based on rat studies) [mg/kg] | dose at which serious Dronabinol-associated adverse events in humans have been reported ([1]; humans) [mg/kg] | estimated lethal dose in humans ([1]; intravenous) [mg/kg] | safety / side effects in clinical research [2] |
| --- | --- | --- | --- | --- |
| CCCCCc1cc(O)c2c(c1)OC(C)(C)[C@@H]1CCC(C)=C[C@@H]21 [Dronabinol, (−)-Trans-Δ9-tetrahydrocannabinol] | 30 | 0.4 | 30 | – |
| CCCCCCCCCCCCCCCC(=O)NCCO [PEA, N-(2-hydroxyethyl)hexadecanamide] | – | – | – | no side effects has ever been reported |
